How the values were obtained:
[1] = test system: partially purified aldose reductase enzyme obtained from calf lens; assay: inhibition of aldose reductase enzyme activity (procedure of US 3,821,383 / Hayman et al.); assay type: biochemical; conditions: compound concentration 10^-4 M
From the text: (§1) The activity of the compounds of the present invention as agents for the control of chronic diabetic complications may be determined by a number of standard biological or pharmacological tests. Suitable tests include (1) measuring their ability to inhibit the enzyme activity of isolated aldose reductase; (2) measuring their ability to reduce or inhibit sorbitol accumulation in the sciatic nerve of acutely streptozotocinized (i.e. diabetic) rats; (3) measuring their ability to reverse already elevated sorbitol levels in the sciatic nerve and lens of chronic streptozotocin-induced diabetic rats; (4) measuring their ability to prevent or inhibit galactitol formation in the lens of acutely galactosemic rats; and (5) measuring their ability to delay cataract formation and reduce the severity of lens opacities in chronic galactosemic rats. Suitable experimental procedures are described in U.S. Pat. No. 3,821,383 and the references cited therein.
(§2) The substrate employed was partially purified aldose reductase enzyme obtained from calf lens. […] Thus, for example, the compounds may be tested for their ability to reduce or inhibit sorbitol accumulation in the sciatic nerve of streptozotocinized (i.e., diabetic) rats by the procedure essentially described in U.S. Pat. No. 3,821,383. The amount of sorbitol accumulation in the sciatic nerves is measured 27 hours after induction of diabetes. […]

[2] = test system: sorbitol accumulation in the sciatic nerve of streptozotocinized (i.e., diabetic) rats; assay: sorbitol accumulation in the sciatic nerve of streptozotocinized (diabetic) rats; assay type: in vivo; conditions: oral; 50 mg/kg body weight; preliminary tests
From the text: as §1, §2

Structure (SMILES)	percent inhibition of enzyme activity [1] [%]	activity in reducing or inhibiting sorbitol accumulation in the sciatic nerve [2]
O=C1NC(=O)C2(CCCc3ccccc32)O1 (stereo not drawn) [1',2',3',4'-tetrahydro-spiro-[oxazolididine(5,1')naphthalene]-2,4-dione]	75	no significant activity
O=C1NC(=O)C2(CCc3ccccc32)O1 (stereo not drawn) [Spiro-[indane(1,5')oxazolidine]-2',4'-dione]	81	

— patent US4226875A, “Novel spiro-oxazolidinediones” (Pfizer Inc., priority 1979, dated 1980)
